# Key:
# [1] = tested on: high fat diet-induced obese mice; assay: tissue specific 3H-2-deoxy-D-glucose uptake after oral glucose gavage; format: in vivo, mouse; details: day 5, vs saline
# Description: On the fifth day of EOS or PBS treatment 3H-2-deoxy-D-glucose (2DG; 10 uCi/mouse; PerkinElmer, Waltham, Mass.) was given to 4-hour fasted individually housed mice. Studies were performed in 2 cohorts on 2 different days. 2DG was given by oral gavage in a solution of glucose (2.5 g/kg) and each mouse received the same dose based off the average body weight for their cohort (0.1 mL/10 g body weight). Mice were anesthetized by isoflurane and sacrificed by cervical dislocation 45 minutes following oral gavage. Liver, soleus, quadriceps femoris, and gonadal white adipose tissue were collected, weighed, and dissolved overnight in 1N NaOH (0.5 mL/50 mg tissue) at 55° C. on a shaker plate. 0.5 mL of dissolved tissue was added to 5 mL of scintillation cocktail (Ultima Gold, PerkinElmer, Waltham, Mass.) and disintegrations per minute (DPM) were measured using a LS 6500 Multipurpose Scintillation Counter (Beckman Coulter, Brea, Calif.). DPM/g tissue weight was determined for each tissue and normalized based on a correction factor calculated by the average total DPM/g for all tissues divided by the total DPM/g for all tissues of the individual mouse.
# GABA-T = biological target: T1, GABA-T (Mus musculus, UniProt P61922); assay: liver slice GABA export with GABA-T inhibitor ex vivo; format: cell-based; details: 5.3 mM
# T1 construct: from tissue; host or cells: liver slices of lean, obese and obese Kir2.1-expressing mice
# T1 sequence (P61922 29-500): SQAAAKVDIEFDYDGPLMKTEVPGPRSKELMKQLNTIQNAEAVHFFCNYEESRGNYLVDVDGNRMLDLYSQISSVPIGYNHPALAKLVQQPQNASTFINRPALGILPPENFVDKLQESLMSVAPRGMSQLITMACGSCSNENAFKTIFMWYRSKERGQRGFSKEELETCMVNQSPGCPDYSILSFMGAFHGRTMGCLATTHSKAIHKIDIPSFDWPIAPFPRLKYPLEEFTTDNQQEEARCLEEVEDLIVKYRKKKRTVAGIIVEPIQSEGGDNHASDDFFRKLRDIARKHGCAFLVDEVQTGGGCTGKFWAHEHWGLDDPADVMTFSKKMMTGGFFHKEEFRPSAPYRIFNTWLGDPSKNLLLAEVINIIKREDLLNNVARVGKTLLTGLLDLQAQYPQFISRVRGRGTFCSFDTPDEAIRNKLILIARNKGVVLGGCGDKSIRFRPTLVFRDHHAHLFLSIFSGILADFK
# Source text: Two liver slices were taken from each mouse.
# [2] = tested on: high fat diet-induced obese mice; assay: muscle cGMP content (ELISA); format: in vivo, mouse; details: day 5
# Description: On the fifth day of EOS or PBS treatment, mice were sacrificed and the quadricep and soleus tissues were collected and frozen on dry ice. Prior to analysis, frozen quadricep were powdered using a liquid nitrogen cooled mortar and pestle to obtain homogenous muscle samples. 15-20 mg of quadricep and the entire soleus tissue (6-12 mg) were homogenized in 200 μL of a 5% trichloroacetic acid solution. Following 15 minutes of centrifugation at 3,000×g at 4° C., supernatant was transferred to a fresh tube for analysis of muscle cGMP by enzyme-linked immunosorbent assay (ELISA; ADI-900-164, Enzo Life Sciences, Farmingdale, N.Y.).
# diet-induced obese mice = assay: body composition by EchoMRI in EOS treated mice; format: in vivo, mouse; details: 3 g/L in drinking water, day 7 vs day 0
# Description: Body composition was assessed in diet-induced obese mice on day 0 and 7 days after continuous provision of EOS in the drinking water (3 g/L) using an EchoMRI 900 with A10 insert for mice. Calibration was performed daily and had the water stage set to on.
# [3] = tested on: obese hepatic vagotomized and sham operated mice; assay: EOS (8 mg/day) in HFD-induced obese sham operated and hepatic vagotomized mice; format: in vivo, mouse
# Description: Surgeries were performed in 12-week old male C57BL/6J mice under isoflurane anesthesia. Mice were randomly assigned to a surgical group (sham or vagotomy). A ventral midline incision through the skin and peritoneum allowed us to isolate the hepatic vagus nerve as it branched from the esophagus. In vagotomized mice, the hepatic vagal nerve was severed, while it remained intact in sham operated mice. The peritoneum was sutured with absorbable polyglactin 910 suture and the skin with nylon suture. Mice were given a single post-operative dose of slow release formulated buprenorphine analgesic (1.2 mg/kg slow release, sub-cutaneous). Food intake and body weight were monitored daily and sutures were removed 7 days post-operation.
# Wildtype lean and obese mice were randomly divided into treatment groups and dosed daily with 8 mg of ethanolamine-O-sulfate (EOS; Sigma-Aldrich, St. Louis, Mo.), vigabatrin (United States Pharmacopeia, Rockville, Md.) or PBS. Obese sham and vagotomy mice were dosed daily with 8 mg of EOS. In all cases, basal bleeds were taken prior to initiation of an ITT. Lean mice received treatment by oral gavage (0.3 mL/mouse) while obese mice were treated by intraperitoneal injection (0.3 mL/mouse). Pre-treatment studies were conducted in the week immediately prior to beginning drug administration. Daily doses took place at 9 am each day and oral glucose tolerance tests (OGTT) and insulin tolerance tests (ITT) were performed on the third and fourth days of treatment in lean mice, respectively. In wildtype obese mice, OGTT and ITT were performed on the fourth day of treatment in separate cohorts. On the fifth day of treatment, 2DG clearance studies were performed. In sham/vagotomy mice, OGTT and ITT were performed on the fourth and fifth day of treatment, respectively. After a 2-week washout period without treatment injection, a basal bleed and bleed 15 minutes after an oral glucose gavage ([…]) to determine oral glucose stimulated insulin secretion were performed.
# Oral glucose (2.5 g/kg; 0.1 mL/10 g body weight; Chem-Impex Int'l Inc., Wood Dale, Ill.) was given to 4 hour fasted individually housed mice. All glucose tolerance tests began at […] and glucose was measured in whole blood, collected from the tail vein, by glucometer (Manufacture #D2ASCCONKIT, Bayer, Leverkusen, Germany) at 0, 15, 30, 60, 90, and 120 minutes after glucose gavage. Blood for serum insulin (oral glucose stimulated insulin secretion; OGSIS) and glucose determination was collected from the tail vein 15 minutes following glucose administration.
# Intraperitoneal insulin (0.5 U/kg; 0.1 mL/10 g body weight; Sigma Aldrich, St. Louis, Mo.) was given to 4 hour fasted individually housed mice. All insulin tolerance tests began at […] and glucose was measured in whole blood, collected from the tail vein, by glucometer (Manufacture #D2ASCCONKIT, Bayer, Leverkusen, Germany) at 0, 30, 60, 90, and 120 minutes after insulin injection.
smiles,measurement,setting,value
"NCCOS(=O)(=O)O [EOS, ethanolamine-O-sulfate]",2DG clearance by gonadal white adipose tissue,[1],did not affect
same,2DG clearance by the quadriceps femoris,[1],did not affect
same,increase of 2DG uptake by the soleus,[1],22%
same,GABA export,GABA-T; obese Kir2.1 expressing liver slices,decreased
same,GABA export,GABA-T; obese control liver slices,decreased
same,cGMP in quad,[2],no effect
same,increase of cGMP in the soleus,[2],59%
same,decrease of fat mass,diet-induced obese mice,16.27%
same,decrease of lean mass,diet-induced obese mice,6.15%
same,decrease of total body mass,diet-induced obese mice,10%
same,responses to EOS in vagotomized mice,[3]; hepatic vagotomized obese mice,eliminated most of the responses
same,serum glucose,[3]; hepatic vagotomized obese mice,decrease
same,glucose stimulated serum insulin,[3]; sham operated obese mice,diminished
same,glucose:insulin ratio,[3]; sham operated obese mice,elevated
same,insulin sensitivity by insulin tolerance test,[3]; sham operated obese mice,tended to improve
same,oral glucose tolerance,[3]; sham operated obese mice,improved
same,serum glucose,[3]; sham operated obese mice,decreased
same,serum insulin,[3]; sham operated obese mice,decreased
same,all parameters after washout,"[3]; sham operated obese mice, 2-week washout",restored all parameters to pre-treatment measures
same,body weight between surgical groups,"[3]; sham vs vagotomized, during EOS treatment",did not differ

# From patent US20230128194A1, “METHODS AND COMPOSITIONS TO ALTER HEPATIC GABA RELEASE TO TREAT OBESITY-RELATED CONDITIONS” (ARIZONA BOARD OF REGENTS ON BEHALF OF THE UNIVERSITY OF …, priority 2017, published 2023)
